From PubChem BioAssay (NCI)
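These data come from cells grown in 96-well plates and exposed to compound for 48 hours at five concentrations. GI50 = concentration required for 50% inhibition of growth. TGI denotes the concentration required for complete inhibition of growth.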

Assays:
Assay in all cases: NCI anticancer screen, dose series, 48 h
HT29 colon = system: HT29 colon
NCI-H23 lung = system: NCI-H23 lung
EKVX NSCLC = system: EKVX NSCLC
UACC-62 melanoma = system: UACC-62 melanoma
SF-268 CNS = system: SF-268 CNS
HS 578T breast = system: HS 578T breast
UACC-257 melanoma = system: UACC-257 melanoma
HCC-2998 colon = system: HCC-2998 colon
TK-10 renal = system: TK-10 renal
NCI-H226 lung = system: NCI-H226 lung

Row | Compound | TGI (HT29 colon) [µM] | TGI (NCI-H23 lung) [µM] | TGI (EKVX NSCLC) [µM] | TGI (UACC-62 melanoma) [µM] | TGI (SF-268 CNS) [µM] | TGI (HS 578T breast) [µM] | TGI (UACC-257 melanoma) [µM] | TGI (HCC-2998 colon) [µM] | TGI (TK-10 renal) [µM] | TGI (NCI-H226 lung) [µM] | GI50 (HT29 colon) [µM] | GI50 (NCI-H23 lung) [µM] | GI50 (EKVX NSCLC) [µM] | GI50 (UACC-62 melanoma) [µM] | GI50 (SF-268 CNS) [µM] | GI50 (UACC-257 melanoma) [µM] | GI50 (HCC-2998 colon) [µM] | GI50 (TK-10 renal) [µM] | GI50 (HS 578T breast) [µM]
1 | COc1ccc2c(c1)CCc1cc(OC)ccc1/[N+]([O-])=[N+]\2[O-] | 45.2 | 52.4 | 42.5 | 30.6 | 32.9 | > 59.8 | 35 | 58.2 | 45 | – | – | – | – | – | – | – | – | – | –
2 | CCOC(=O)c1[nH]c2cc(OC)c(OC)cc2c1CN(C)C | > 100 | > 100 | > 100 | > 100 | > 100 | – | > 100 | > 100 | > 100 | > 100 | – | – | – | – | – | – | – | – | –
3 | COC1C=COC2(C)Oc3c(C)c(O)c4c(O)c(c(C5SCCS5)c(O)c4c3C2=O)NC(=O)/C(C)=C\C=CC(C)C(O)C(C)C(O)C(C)C(OC(C)=O)C1C (configuration not stated) | 13 | 18.4 | – | 19.2 | 32 | 40.6 | 17.8 | – | 14.2 | 21.8 | – | – | – | – | – | – | – | – | –
4 | O=C(Nc1ccc(Cl)cc1C(=O)O)c1ccc([N+](=O)[O-])cc1 | 40.7 | – | 82.8 | 45.6 | > 100 | – | 48 | 39.6 | 86.4 | 72.2 | – | – | – | – | – | – | – | – | –
5 | C[N+](C)(C)c1cc[c]([Sn]([c]2ccc([N+](C)(C)C)cc2)([c]2ccc([N+](C)(C)C)cc2)[c]2ccc([N+](C)(C)C)cc2)cc1 | > 100 | > 100 | > 100 | > 100 | > 100 | – | > 100 | > 100 | > 100 | – | > 100 | > 100 | > 100 | > 100 | > 100 | > 100 | > 100 | > 100 | –
6 | O=C(CCC(=O)Nc1cccc(C(F)(F)F)c1)CC(=O)c1ccc2ccccc2c1 | > 100 | > 100 | > 100 | > 100 | > 100 | – | > 100 | > 100 | > 100 | > 100 | – | – | – | – | – | – | – | – | –
7 | CC1=CP(=O)(c2ccccc2)C=C(C)C1=C(Cl)Cl (configuration not stated) | 13.1 | 34.9 | – | 21.7 | 42.4 | – | – | 29.8 | 43.3 | 9.68 | – | – | – | – | – | – | – | – | –
8 | CC(=O)NNc1nc(C)c(C(=O)NNC(=O)C(=O)Nc2c([N+](=O)[O-])ccc(C)c2C)s1 | > 100 | > 100 | > 100 | > 100 | > 100 | – | > 100 | > 100 | > 100 | > 100 | – | – | – | – | – | – | – | – | –
9 | N#CC1(C#N)C=CC(=C2OCC3CCCN23)C=C1 (configuration not stated) | > 100 | – | – | > 100 | > 100 | – | > 100 | > 100 | > 100 | > 100 | – | – | – | – | – | – | – | – | –
10 | O=C1C=C(OCC=C(C(F)(F)F)C(F)(F)F)c2ccccc2C1=O | 5.47 | – | – | 4.1 | 7.42 | 7.21 | 2.77 | 3.73 | – | – | 2.4 | – | – | 1.7 | 2.53 | 1.42 | 1.84 | – | 2.06
11 | COCCc1n(Cc2ccc3ccccc3c2)c2ccccc2[n+]1Cc1ccc2ccccc2c1 | 1.51 | – | – | 1.52 | – | – | 1.77 | – | 2.65 | – | 0.379 | – | – | 0.384 | – | 0.456 | – | 1.26 | –
